{"source": "paper PMC10927086", "about": "“Effects of structurally distinct human HDAC6 and HDAC6/HDAC8 inhibitors against S. mansoni larval and adult worm stages” (PLOS Neglected Tropical Diseases, 2024)", "key": {"[1]": {"tested_on": "adult S. mansoni worm pairs (ovary, ootype, vitellarium, gut)", "assay": "Carmine-red staining and confocal laser scanning microscopy of adult worm pairs", "type": "cell-based, Schistosoma mansoni", "conditions": "72 h", "procedure": "Carmine Red staining was performed as previously described. […] Images were collected as a single stack.\nTo characterize the phenotypic alterations induced by compound treatment in more detail, carmine-red staining, followed by confocal laser scanning microscopy (CLSM) analysis was performed (Fig 5). Sublethal doses of compounds were chosen to preserve the overall parasite viability and pairing. For each compound, 3–5 couples in two independent experiments were analyzed and images of ootype, ovary, vitellarium, testis, gut, and parenchyma were recorded. […] The vitellarium retains a preserved structure in all analyzed samples. […] Accumulation of carmine-red positive particle aggregates was also present in the lumen of the NF2839-treated male worms (Fig 5).\nFig 5 Confocal microscopy of carmine-red stained adult worm pairs treated with quinolone-based HDAC inhibitors. […] The ovary, ootype and gut are shown. Immature oocytes (io), mature oocytes (mo), ootype (ot) and gastrodermis (ga) are labeled. In the Figure, red filled triangles indicate degenerated mo; empty red triangles indicate egg fragments in the ootypes; asterisks indicate deformed egg in the ootype and carmine red aggregates in the gut lumen, filled red arrows indicate the ga in the gut. Scale bars: 50 μm."}, "[2]": {"tested_on": "S. mansoni eggs laid by worm pairs", "assay": "Egg counts and egg maturation staging (Vogel and Prata) in vitro", "type": "cell-based, Schistosoma mansoni", "conditions": "for percent of eggs that are viable at the given maturation stage at 20 µM / percent of eggs that are viable at the given maturation stage at 50 µM: Schistosoma mansoni", "text": "The eggs produced by worm pairs in vitro were counted at day 3 upon treatment using an inverted Leica DM IL microscope (Leica Microsystems, Wetzlar, Germany). Images were captured with a BX41 Olympus (Olympus, Tokyo, Japan) microscope and a brightfield objective 10× served by an Olympus DP23 microscope digital camera and visualized using “CellSens Entry” software (version 3.1.1). Egg maturation morphological score was assigned based on the Vogel and Prata’s staging system of egg maturation previously reported.\nTherefore at 72 h upon worm pairs treatment the eggs were counted and classified by microscopic observation according to the Vogel and Prata staging system of egg maturation and grouped as immature (stages I and II), intermediate/developed (stages III–V), viable or damaged eggs.\nPanel B. Histograms represent the percentages of eggs at different maturation stages +/- SEM counted at 72 h after treatment; 5–6 microscopy images of at least 3 independent experiments were analyzed. Filled red triangles indicate viable eggs at stages I–II (immature); empty red triangles indicate damaged/morphological abnormal eggs at stages I–II (immature); filled red arrows indicate viable eggs at stages III–V (intermediate/developed); empty red arrows indicate damaged/morphological abnormal eggs at stages III-V; ef, egg fragments; sp, sperm cells; oc, oocyte. Scale Bars = 200 μm."}, "[3]": {"conditions": "72 h, NF2839 5 and 10 μM, NF2836 20 and 50 μM"}}, "note": "Like-named read-outs stand apart in the source and are kept apart here."}
{"molecule": "Cn1c(=O)c(OCc2ccc(C(=O)NO)cc2)c(C2CCCCC2)c2ccccc21", "note": "[NF2836]", "values": [{"measurement": "samples with decrease of cellularity in the ovary mature compartment", "setting": "[1]; 50 uM", "value": "5/11"}, {"measurement": "ootype content", "setting": "[1]; higher concentration (NF2836 50 μM, NF2839 10 μM)", "value": "either an empty ootype or no properly developed eggs and/or egg fragments"}, {"measurement": "gut morphology", "setting": "[1]; higher concentration (NF2836 50 μM, NF2839 10 μM), all worms, in particular males", "value": "gut dilation with a dramatic decrease in the number of surface amplification and lumen epithelial thinning"}, {"measurement": "ootype containing damaged eggs", "setting": "[1]; lower concentrations (NF2836 20 μM, NF2839 5 μM)", "value": "5/7"}, {"measurement": "overall morphology of the ovary", "setting": "[1]; sublethal doses", "value": "seemed not to be affected"}, {"measurement": "% Stage I/II damaged", "setting": "[2]; 20 µM, exp.1", "value": 97.1, "unit": "%"}, {"measurement": "%Stage III/IV/V damaged", "setting": "[2]; 20 µM, exp.1", "value": 0, "unit": "%"}, {"measurement": "Stage I/II damaged counts", "setting": "[2]; 20 µM, exp.1", "value": 608}, {"measurement": "Stage I/II viable (egg counts)", "setting": "[2]; 20 µM, exp.1", "value": 18}, {"measurement": "Stage II/IV/V viable (egg counts)", "setting": "[2]; 20 µM, exp.1", "value": 0}, {"measurement": "Stage III/IV/V damaged (egg counts)", "setting": "[2]; 20 µM, exp.1", "value": 0}, {"measurement": "egg counts", "setting": "[2]; 20 µM, exp.1", "value": 626}, {"measurement": "% Stage I/II damaged", "setting": "[2]; 20 µM, exp.2", "value": 16.0, "unit": "%"}, {"measurement": "%Stage III/IV/V damaged", "setting": "[2]; 20 µM, exp.2", "value": 0, "unit": "%"}, {"measurement": "Stage I/II damaged counts", "setting": "[2]; 20 µM, exp.2", "value": 76}, {"measurement": "Stage I/II viable (egg counts)", "setting": "[2]; 20 µM, exp.2", "value": 378}, {"measurement": "Stage II/IV/V viable (egg counts)", "setting": "[2]; 20 µM, exp.2", "value": 19}, {"measurement": "Stage III/IV/V damaged (egg counts)", "setting": "[2]; 20 µM, exp.2", "value": 0}, {"measurement": "% Stage I/II damaged", "setting": "[2]; 20 µM, exp.3", "value": 79.8, "unit": "%"}, {"measurement": "%Stage III/IV/V damaged", "setting": "[2]; 20 µM, exp.3", "value": 0, "unit": "%"}, {"measurement": "Stage I/II damaged counts", "setting": "[2]; 20 µM, exp.3", "value": 408}, {"measurement": "Stage I/II viable (egg counts)", "setting": "[2]; 20 µM, exp.3", "value": 103}, {"measurement": "Stage II/IV/V viable (egg counts)", "setting": "[2]; 20 µM, exp.3", "value": 0}, {"measurement": "Stage III/IV/V damaged (egg counts)", "setting": "[2]; 20 µM, exp.3", "value": 0}, {"measurement": "egg counts", "setting": "[2]; 20 µM, exp.3", "value": 511}, {"measurement": "% Stage I/II damaged, Media", "setting": "[2]; 20 µM, mean of experiments", "value": 64.3, "unit": "%"}, {"measurement": "%Stage III/IV/V damaged, Media", "setting": "[2]; 20 µM, mean of experiments", "value": 0, "unit": "%"}, {"measurement": "% Stage I/II damaged", "setting": "[2]; 50 µM, exp.1", "value": 99.8, "unit": "%"}, {"measurement": "%Stage III/IV/V damaged", "setting": "[2]; 50 µM, exp.1", "value": 0, "unit": "%"}, {"measurement": "Stage I/II damaged counts", "setting": "[2]; 50 µM, exp.1", "value": 448}, {"measurement": "Stage I/II viable (egg counts)", "setting": "[2]; 50 µM, exp.1", "value": 1}, {"measurement": "egg counts", "setting": "[2]; 50 µM, exp.1", "value": 449}, {"measurement": "% Stage I/II damaged", "setting": "[2]; 50 µM, exp.2", "value": 92.6, "unit": "%"}, {"measurement": "%Stage III/IV/V damaged", "setting": "[2]; 50 µM, exp.2", "value": 0, "unit": "%"}, {"measurement": "Stage I/II damaged counts", "setting": "[2]; 50 µM, exp.2", "value": 287}, {"measurement": "Stage I/II viable (egg counts)", "setting": "[2]; 50 µM, exp.2", "value": 23}, {"measurement": "egg counts", "setting": "[2]; 50 µM, exp.2", "value": 310}, {"measurement": "% Stage I/II damaged, Media", "setting": "[2]; 50 µM, mean of experiments", "value": 96.2, "unit": "%"}, {"measurement": "%Stage III/IV/V damaged, Media", "setting": "[2]; 50 µM, mean of experiments", "value": 0, "unit": "%"}, {"measurement": "egg damage / viability", "setting": "[2]; [3]", "value": "eggs appeared seriously damaged and not viable"}, {"measurement": "egg maturation (Vogel and Prata staging)", "setting": "[2]; [3]", "value": "essentially all eggs were arrested in stage I/II"}, {"measurement": "number of eggs laid by worm pairs", "setting": "[2]; [3]", "value": "did not observe a decrease in the number of eggs"}, {"measurement": "percent of eggs that are viable at the given maturation stage at 20 µM", "setting": "[2]; 20 µM, exp.1, read-out: % Stage I/II viable", "value": 2.9, "unit": "%"}, {"measurement": "percent of eggs that are viable at the given maturation stage at 20 µM", "setting": "[2]; 20 µM, exp.1, read-out: %Stage II/IV/V viable", "value": 0, "unit": "%"}, {"measurement": "percent of eggs that are viable at the given maturation stage at 20 µM", "setting": "[2]; 20 µM, exp.2, read-out: % Stage I/II viable", "value": 79.6, "unit": "%"}, {"measurement": "percent of eggs that are viable at the given maturation stage at 20 µM", "setting": "[2]; 20 µM, exp.2, read-out: %Stage II/IV/V viable", "value": 4, "unit": "%"}, {"measurement": "percent of eggs that are viable at the given maturation stage at 20 µM", "setting": "[2]; 20 µM, exp.3, read-out: % Stage I/II viable", "value": 20.2, "unit": "%"}, {"measurement": "percent of eggs that are viable at the given maturation stage at 20 µM", "setting": "[2]; 20 µM, exp.3, read-out: %Stage II/IV/V viable", "value": 0, "unit": "%"}, {"measurement": "percent of eggs that are viable at the given maturation stage at 20 µM", "setting": "[2]; 20 µM, mean of experiments, read-out: % Stage I/II viable, Media", "value": 34.2, "unit": "%"}, {"measurement": "percent of eggs that are viable at the given maturation stage at 20 µM", "setting": "[2]; 20 µM, mean of experiments, read-out: %Stage II/IV/V viable, Media", "value": 1.3, "unit": "%"}, {"measurement": "percent of eggs that are viable at the given maturation stage at 50 µM", "setting": "[2]; 50 µM, exp.1, read-out: % Stage I/II viable", "value": 0.223, "unit": "%"}, {"measurement": "percent of eggs that are viable at the given maturation stage at 50 µM", "setting": "[2]; 50 µM, exp.1, read-out: %Stage II/IV/V viable", "value": 0, "unit": "%"}, {"measurement": "percent of eggs that are viable at the given maturation stage at 50 µM", "setting": "[2]; 50 µM, exp.2, read-out: % Stage I/II viable", "value": 7.4, "unit": "%"}, {"measurement": "percent of eggs that are viable at the given maturation stage at 50 µM", "setting": "[2]; 50 µM, exp.2, read-out: %Stage II/IV/V viable", "value": 0, "unit": "%"}, {"measurement": "percent of eggs that are viable at the given maturation stage at 50 µM", "setting": "[2]; 50 µM, mean of experiments, read-out: % Stage I/II viable, Media", "value": 3.8, "unit": "%"}, {"measurement": "percent of eggs that are viable at the given maturation stage at 50 µM", "setting": "[2]; 50 µM, mean of experiments, read-out: %Stage II/IV/V viable, Media", "value": 0, "unit": "%"}]}
